# Test results as given in patent US20220204476A1, “RNA VIRUS INHIBITOR COMPOUNDS AND USES THEREOF” (The Governors of the University of Alberta, priority 2020, published 2022).
# Like-named read-outs stand apart in the source and are kept apart here.
# What was measured:
# SARS-CoV-2 = SARS-CoV-2 in vitro plaque reduction assay in Vero E6 cells; format: cell-based; details: plaques counted after 48 h, >5 μM = did not reduce plaque numbers by half at 10 μM, read-out: SARS-CoV-2 Antiviral EC50
# SARS-CoV-2 3CLP = SARS-CoV-2 3CLP (Severe acute respiratory syndrome coronavirus 2, UniProt P0DTD1); test: SARS-CoV-2 3CLP inhibition, FRET-based cleavage assay; format: biochemical; details: 100 μM substrate, 37° C., 10 min incubation, pH 7.8
# [1] = Severe acute respiratory syndrome coronavirus 2, Vero C1008, MOI 0.0001 pfu/cell
# [2] = 80 nM SARS-CoV-2 3CLP, read-out: 3CL Protease IC50
# [3] = 3CL Protease IC50, 80 nM SARS-CoV-2 3CLP
Compound,EC50 (SARS-CoV-2; [1]),IC50 (SARS-CoV-2 3CLP; [2]),EC50 (SARS-CoV-2; MOI 0.0001 pfu/cell),IC50 (SARS-CoV-2 3CLP; [3])
"CC(C)C[C@H](NCC1Cc2ccccc2O1)C(=O)N[C@H](C#N)C[C@@H]1CCCNC1=O (single isomer, unassigned) [Compound 96]",> 5000 nM,46000 nM,–,–
"CC(C)C[C@H](NCC1Cc2ccccc2O1)C(=O)N[C@H](C#N)C[C@@H]1CCCNC1=O (single isomer, unassigned) [Compound 97]",–,> 500000 nM,> 5000 nM,–
"COc1cccc2[nH]c(C(=O)N[C@@H](CC(C)C)C(=O)N[C@@H](C[C@@H]3CCCNC3=O)C(=O)COC(=O)C(C)(C)C)cc12 [Compound 1, (3S)-3-{[N-(4-methoxy-1H-indole-2-carbonyl)-L-leucyl]amino}-2-oxo-4-[(3S)-2-oxopiperidin-3-yl]butyl 2,2-dimethylpropanoate]",> 5000 nM,64 nM,–,–
"COc1cccc2[nH]c(C(=O)N[C@@H](CC(C)C)C(=O)N[C@@H](C[C@@H]3CCCNC3=O)C(=O)COC(=O)c3ccccc3)cc12 [Compound 2, (3S)-3-{[N-(4-methoxy-1H-indole-2-carbonyl)-L-leucyl]amino}-2-oxo-4-[(3S)-2-oxopiperidin-3-yl]butyl benzoate]",> 5000 nM,64 nM,–,–
"COc1cccc2[nH]c(C(=O)N[C@@H](CC(C)C)C(=O)N[C@@H](C[C@@H]3CCCNC3=O)C(=O)COC(=O)c3ccccn3)cc12 [Compound 3, (3S)-3-{[N-(4-methoxy-1H-indole-2-carbonyl)-L-leucyl]amino}-2-oxo-4-[(3S)-2-oxopiperidin-3-yl]butyl pyridine-2-carboxylate]",> 5000 nM,–,–,130 nM
"COc1cccc2[nH]c(C(=O)N[C@@H](CC(C)C)C(=O)N[C@@H](C[C@@H]3CCCNC3=O)C(=O)COC(=O)c3cccnc3)cc12 [Compound 4, (3S)-3-{[N-(4-methoxy-1H-indole-2-carbonyl)-L-leucyl]amino}-2-oxo-4-[(3S)-2-oxopiperidin-3-yl]butyl pyridine-3-carboxylate]",> 5000 nM,4 nM,–,–
"COc1cccc2[nH]c(C(=O)N[C@@H](CC(C)C)C(=O)N[C@@H](C[C@@H]3CCCNC3=O)C(=O)COC(=O)c3c(F)c(F)c(F)c(F)c3F)cc12 [Compound 7, (3S)-3-{[N-(4-methoxy-1H-indole-2-carbonyl)-L-leucyl]amino}-2-oxo-4-[(3S)-2-oxopiperidin-3-yl]butyl pentafluorobenzoate]",> 5000 nM,–,–,–
"COc1cccc2[nH]c(C(=O)N[C@@H](CC(C)C)C(=O)N[C@@H](C[C@@H]3CCCNC3=O)C(=O)COC(=O)c3ccncc3)cc12 [Compound 8, (3S)-3-{[N-(4-methoxy-1H-indole-2-carbonyl)-L-leucyl]amino}-2-oxo-4-[(3S)-2-oxopiperidin-3-yl]butyl pyridine-4-carboxylate]",> 5000 nM,–,–,–
"COc1cccc2[nH]c(C(=O)N[C@@H](CC(C)C)C(=O)N[C@@H](C[C@@H]3CCCNC3=O)C(=O)COC(=O)C3(C)COC(C)(C)OC3)cc12 [Compound 9, (3S)-3-{[N-(4-methoxy-1H-indole-2-carbonyl)-L-leucyl]amino}-2-oxo-4-[(3S)-2-oxopiperidin-3-yl]butyl 2,2,5-trimethyl-1,3-dioxane-5-carboxylate]",> 5000 nM,55 nM,–,–
"COc1cccc2[nH]c(C(=O)N[C@@H](CC(C)C)C(=O)N[C@@H](C[C@@H]3CCCNC3=O)C(=O)COC(=O)c3cccnc3C(F)(F)F)cc12 [Compound 10, (3S)-3-{[N-(4-methoxy-1H-indole-2-carbonyl)-L-leucyl]amino}-2-oxo-4-[(3S)-2-oxopiperidin-3-yl]butyl 2-(trifluoromethyl)pyridine-3-carboxylate]",> 5000 nM,52 nM,–,–
"COc1cccc2[nH]c(C(=O)N[C@@H](CC(C)C)C(=O)N[C@@H](C[C@@H]3CCCNC3=O)C(=O)COC(=O)c3ccc(C(C)(C)C)nc3)cc12 [Compound 11, (3S)-3-{[N-(4-methoxy-1H-indole-2-carbonyl)-L-leucyl]amino}-2-oxo-4-[(3S)-2-oxopiperidin-3-yl]butyl 6-tert-butylpyridine-3-carboxylate]",> 5000 nM,19 nM,–,–
"COc1cccc2[nH]c(C(=O)N[C@@H](CC(C)C)C(=O)N[C@@H](C[C@@H]3CCCNC3=O)C(=O)COC(=O)C3(C#N)CC3)cc12 [Compound 12, (3S)-3-{[N-(4-methoxy-1H-indole-2-carbonyl)-L-leucyl]amino}-2-oxo-4-[(3S)-2-oxopiperidin-3-yl]butyl 1-cyanocyclopropane-1-carboxylate]",> 5000 nM,16 nM,–,–
"COc1cccc2[nH]c(C(=O)N[C@@H](CC(C)C)C(=O)N[C@@H](C[C@@H]3CCCNC3=O)C(=O)COC(=O)C(C)(C)C#N)cc12 [Compound 14, (3S)-3-{[N-(4-methoxy-1H-indole-2-carbonyl)-L-leucyl]amino}-2-oxo-4-[(3S)-2-oxopiperidin-3-yl]butyl 2-cyano-2-methylpropanoate]",> 5000 nM,22 nM,–,–
"COc1cccc2[nH]c(C(=O)N[C@@H](CC(C)C)C(=O)N[C@@H](C[C@@H]3CCCNC3=O)C(=O)COC(=O)C3(C(F)(F)F)CC3)cc12 [Compound 15, (3S)-3-{[N-(4-methoxy-1H-indole-2-carbonyl)-L-leucyl]amino}-2-oxo-4-[(3S)-2-oxopiperidin-3-yl]butyl 1-(trifluoromethyl)cyclopropane-1-carboxylate]",> 5000 nM,41 nM,–,–
"COc1cccc2[nH]c(C(=O)N[C@@H](CC(C)C)C(=O)N[C@@H](C[C@@H]3CCCNC3=O)C(=O)COC(=O)C3(C)OCCCO3)cc12 [Compound 16, (3S)-3-{[N-(4-methoxy-1H-indole-2-carbonyl)-L-leucyl]amino}-2-oxo-4-[(3S)-2-oxopiperidin-3-yl]butyl 2-methyl-1,3-dioxane-2-carboxylate]",> 5000 nM,–,–,13 nM
"CC(C)C[C@H](NC(=O)C1CCCC1)C(=O)N[C@@H](C[C@@H]1CCCNC1=O)C(=O)COC(=O)c1cccnc1 [Compound 17, (3S)-3-{[N-(cyclopentanecarbonyl)-L-leucyl]amino}-2-oxo-4-[(3S)-2-oxopiperidin-3-yl]butyl pyridine-3-carboxylate]",> 5000 nM,4990 nM,–,–
"COc1cccc2[nH]c(C(=O)N[C@@H](CC(C)C)C(=O)N[C@@H](C[C@@H]3CCCNC3=O)C(=O)COC(=O)C3(C#N)CCCC3)cc12 [Compound 19, (3S)-3-{[N-(4-methoxy-1H-indole-2-carbonyl)-L-leucyl]amino}-2-oxo-4-[(3S)-2-oxopiperidin-3-yl]butyl 1-cyanocyclopentane-1-carboxylate]",> 5000 nM,26 nM,–,–
"COc1cccc2[nH]c(C(=O)N[C@@H](CC(C)C)C(=O)N[C@@H](C[C@@H]3CCCNC3=O)C(=O)COC(=O)C3(C(F)(F)F)CCCCC3)cc12 [Compound 20, (3S)-3-{[N-(4-methoxy-1H-indole-2-carbonyl)-L-leucyl]amino}-2-oxo-4-[(3S)-2-oxopiperidin-3-yl]butyl 1-(trifluoromethyl)cyclohexane-1-carboxylate]",710 nM,86 nM,–,–
"COc1cccc2[nH]c(C(=O)N[C@@H](CC(C)C)C(=O)N[C@@H](C[C@@H]3CCCNC3=O)C(=O)COC(=O)c3sc(C)nc3C(F)(F)F)cc12 [Compound 21, (3S)-3-{[N-(4-methoxy-1H-indole-2-carbonyl)-L-leucyl]amino}-2-oxo-4-[(3S)-2-oxopiperidin-3-yl]butyl 2-methyl-4-(trifluoromethyl)-1,3-thiazole-5-carboxylate]",> 5000 nM,18 nM,–,–
"COc1cccc2[nH]c(C(=O)N[C@@H](CC(C)C)C(=O)N[C@@H](C[C@@H]3CCCNC3=O)C(=O)COC(=O)c3cnc(C)cc3C)cc12 [Compound 22, (3S)-3-{[N-(4-methoxy-1H-indole-2-carbonyl)-L-leucyl]amino}-2-oxo-4-[(3S)-2-oxopiperidin-3-yl]butyl 4,6-dimethylpyridine-3-carboxylate]",> 5000 nM,17 nM,–,–
"COc1cccc2[nH]c(C(=O)N[C@@H](CC(C)C)C(=O)N[C@@H](C[C@@H]3CCCNC3=O)C(=O)COC(=O)c3c(C)cc(C)nc3C)cc12 [Compound 23, (3S)-3-{[N-(4-methoxy-1H-indole-2-carbonyl)-L-leucyl]amino}-2-oxo-4-[(3S)-2-oxopiperidin-3-yl]butyl 2,4,6-trimethylpyridine-3-carboxylate]",–,–,–,36 nM
"COc1cccc2[nH]c(C(=O)N[C@@H](CC(C)C)C(=O)N[C@H](C#N)C[C@@H]3CCNC3=O)cc12 [Compound 24, N-[(2S)-1-({(1S)-1-cyano-2-[(3S)-2-oxopyrrolidin-3-yl]ethyl}amino)-4-methyl-1-oxopentan-2-yl]-4-methoxy-1H-indole-2-carboxamide]",> 5000 nM,–,–,–
"COc1cccc2[nH]c(C(=O)N[C@@H](CC(C)C)C(=O)N[C@@H](C[C@@H]3CCNC3=O)C(=O)COC(=O)c3c(C(F)(F)F)cc(C)nc3C)cc12 [Compound 26, (3S)-3-{[N-(4-methoxy-1H-indole-2-carbonyl)-L-leucyl]amino}-2-oxo-4-[(3S)-2-oxopyrrolidin-3-yl]butyl 2,6-dimethyl-4-(trifluoromethyl)pyridine-3-carboxylate]",–,17 nM,–,–
"COc1cccc2[nH]c(C(=O)N[C@@H](CC(C)C)C(=O)N[C@@H](C[C@@H]3CCCNC3=O)C(=O)COC(=O)c3c(C)nc(C)nc3C)cc12 [Compound 72, 3-{[N-(4-methoxy-1H-indole-2-carbonyl)leucyl]amino}-2-oxo-4-(2-oxopiperidin-3-yl)butyl 2,4,6-trimethylpyrimidine-5-carboxylate]",–,22 nM,–,–
"[2H]C1([2H])CC[C@@H](C[C@@H](C#N)NC(=O)[C@H](CC(C)(C)C)NC(=O)c2cc3c(OC)cccc3[nH]2)C(=O)N1 [Compound 104, N-[(2S)-1-({(1S)-1-cyano-2-[(3S)-2-oxo(6,6-d2)piperidin-3-yl]ethyl}amino)-4,4-dimethyl-1-oxopentan-2-yl]-4-methoxy-1H-indole-2-carboxamide]",> 5000 nM,–,–,–
